Data taken from patent publication US9206124B2, “Treatment of drug-resistant cancer with 2-aryl-2-(3-indolyl) acetohydroxamates” (New Mexico Technical Research Foundation, priority 2013, dated 2015).

How the values were obtained:
[1] = test system: HeLa cervical adenocarcinoma cells; test: MTT antiproliferative assay, HeLa; type: cell-based; conditions: Homo sapiens, Table 1, 48 h treatment, ± SD, read-out: cell viability GI50, HeLa
Description: (§1) This finding led to an exploration of the SAR analyses by synthesizing the first generation compounds 3 containing diverse substituents at different positions in the 2-aryl-2-(3-indolyl)acetohydroxamate skeleton and testing this series for in vitro growth inhibition using the MTT colorimetric assay against two cell lines, human HeLa cervical and MCF-7 breast adenocarcinomas (Table 1). It emerged from these experiments that the substitution on the benzene ring of the indole moiety (R^2≠H) was not tolerated (e.g., 3abfa and 3acfa), whereas the nitrogen could be derivatized (R^1≠H) with only a small activity drop (e.g., 3bafa vs 3aafa).
(§2) Human cancer cell lines were obtained from the American Type Culture Collection (ATCC, Manassas, Va., USA), the European Collection of Cell Culture (ECACC, Salisbury, UK) and the Deutsche Sammlung von Mikroorganismen and Zellkulturen (DSMZ, Braunschweig, Germany). Human cervical adenocarcinoma HeLa cells were cultured in DMEM supplemented with 10% fetal bovine serum (FBS). Human mammary carcinoma MCF-7 cells were cultured in RPMI supplemented with 10% FBS. The U87 cells (ATCC HTB-14) were cultured in DMEM culture medium, while the A549 cells (DSMZ ACC107) were cultured in RPMI culture medium supplemented with 10% heat-inactivated FBS. The glioblastoma multiforme Hs683 (ATCC HTB-138) and the T98G (ATCC CRL-1690) cell lines were cultivated in DMEM supplemented with 10% FBS. The Human uterine sarcoma MES-SA and MES-SA/Dx5 cells were cultured in RPMI-1640 medium supplemented with 10% FBS with MES SA/Dx5 maintained in the presence of 500 nM Doxorubicin (Sigma). SKMEL-28 cells (ATCC HTB72) and U373 glioblastoma cells (ECACC 08061901) were cultured in RPMI culture medium supplemented with 10% heat-inactivated FBS. Cell culture media were supplemented with 4 mM glutamine (Lonza code BE17-605E), 100 μg/mL gentamicin (Lonza code 17-5182), and penicillin-streptomycin (200 units/ml and 200 μg/ml) (Lonza code 17-602E). Neurosphere culture GBM 031810 was established using known methods and maintained in Neurobasal medium (Invitrogen Carlsbad, Calif.) with B27 supplement (20 ul/ml; Invitrogen), Glutamax (10 ul/ml; Invitrogen), fibroblast growth factor-2 (20 ng/ml; Peprotech, Rocky Hill, N.J., USA), epidermal growth factor (20 ng/ml; Peprotech), heparin (32 IE/ml; Sigma Aldrich, St. Louis, Mo.), and penicillin-streptomycin (1×, Invitrogen). Growth factors and heparin were renewed twice weekly. All cell lines were cultured in T25 flasks, maintained and grown at 37° C., 95% humidity, 5% CO2.
(§3) Antiproliferative properties of the synthesized compounds were evaluated by the MTT assay. All compounds were dissolved in DMSO at a concentration of either 100 mM or 50 mM prior to cell treatment. The cells were trypsinized and seeded at 4×10^3 cells per well into 96-well plates. The cells were grown for 24 h, treated with compounds at concentrations ranging from 0.001 to 100 μM and incubated for 48 h in 200 μL media. 20 μL of MTT reagent in serum free medium (5 mg/mL) was added to each well and incubated further for 2 h. Media was removed and the resulting formazan crystals were re-solubilized in 200 μL of DMSO. A490 was measured using a Molecular Devices Thermomax plate reader. The experiments were performed in quadruplicate and repeated at least twice for each compound per cell line. Cells treated with 0.1% DMSO were used as a negative control; 1 μM phenyl arsine oxide (PAO) was used as a positive control.

[2] = test system: MCF-7 breast adenocarcinoma cells; test: MTT antiproliferative assay, MCF-7; type: cell-based; conditions: Homo sapiens, MCF7, Table 1, 48 h treatment, ± SD, read-out: cell viability GI50, MCF7
Description: as §1, §2, §3

[3] = test system: Hs683 anaplastic oligodendroglioma cells; test: MTT antiproliferative assay, Hs683; type: cell-based; conditions: Homo sapiens, Hs 683, 48 h treatment, ± SD, apoptosis-sensitive reference, read-out: GI50 in vitro, Hs683
Description: (§4) As part of the ongoing efforts aimed at identification of compounds active against cancer cells displaying resistance to proapoptotic agents, the selected 2-aryl-2-(3-indolyl)-acetohydroxamates were evaluated for in vitro growth inhibition against a panel of additional cancer cell lines including those resistant to various proapoptotic stimuli, such as human T98G and U87 glioblastoma and human A549 non-small-cell-lung cancer (NSCLC), as well as an apoptosis-sensitive tumor model, such as human Hs683 anaplastic oligodendroglioma, used as a reference. The data reveal that for the most part these compounds retain the single-digit antiproliferatve GI50 values in this challenging cancer cell panel.
as §2, §3

T98G glioblastoma cells = test: MTT antiproliferative assay, T98G; type: cell-based; conditions: Homo sapiens, 48 h treatment, ± SD, read-out: GI50 in vitro, T98G
Description: as §4, §2, §3

SKMEL-28 melanoma cells = test: Quantitative videomicroscopy, SKMEL-28; type: cell-based, human; conditions: 25 μM
Description: (§5) To obtain insight into the effectiveness of 2-aryl-2-(3-indolyl)acetohydroxamates against apoptosis-resistant cancers, computer-assisted phase-contrast microscopy (quantitative videomicroscopy) was employed to observe the phenotypic morphological changes in cancer cells as they are treated with these compounds. […] Based on the phase contrast pictures obtained by means of quantitative videomicroscopy, a global growth ratio (GGR) was calculated, which corresponds to the ratio of the mean number of cells present in a given image captured in the experiment (in this case after 24, 48 and 72 h) to the number of cells present in the first image (at 0 h). The ratio obtained in the 3aafa-treated experiment was then divided by the ratio obtained in the control. […] Thus, the GGR calculations are consistent with the MTT colorimetric data and indicate that it is the cytostatic properties associated with the hydroxamates that are responsible for their antiproliferative effects against apoptosis-resistant cancer cells, at least at relevant concentrations (slightly above the GI50 values).
(§6) Human cancer cell lines were obtained from the American Type Culture Collection (ATCC, Manassas, Va., USA), the European Collection of Cell Culture (ECACC, Salisbury, UK) and the Deutsche Sammlung von Mikroorganismen and Zellkulturen (DSMZ, Braunschweig, Germany). […]

U373 glioblastoma cells = test: Quantitative videomicroscopy, U373; type: cell-based, human; conditions: 25 μM
Description: as §5, §6

U87 glioma cells = test: Redifferentiation of U87 cells to an astrocytic phenotype; type: cell-based, human; conditions: GI50 concentration (7 μM, 33-day treatment, FIG. 5C)
Description: Although such redifferentiation processes are known, there are only a few small molecule agents reported to induce these epigenetic transformations.
U87 cells were plated at a density of 5×10^4 cells per well in 24-well plate in DMEM supplemented with 10% FBS. The following day, the cells in each well were re-fed with 1 mL of fresh DMEM/10% FBS, and treated with 3aafa to a final concentration between 15 and 5 μM. Cells were placed into the CO2 incubator and media was not replaced for the duration of the experiment.

[4] = test system: HeLa cervical and MCF-7 breast adenocarcinomas; test: In vitro growth inhibition (MTT); type: cell-based, human; conditions: HeLa and MCF-7
Description: as §1, §3

[5] = slightly exceeding GI50, FIG. 4
[6] = 72 h observation, treated/control

## O=C(NO)C(c1ccccc1)c1c(-c2ccc3ccccc3c2)[nH]c2ccccc12 (stereo not shown) [Compound 3aafa]
[1]
  GI50: 3.6 ± 0.5 µM
[2]
  GI50: 3.4 ± 0.3 µM
[3]
  GI50: 8.9 ± 0.4 µM
T98G glioblastoma cells
  GI50: 36.4 ± 1.9 µM
SKMEL-28 melanoma cells; [5]
  phenotypic effect, SKMEL-28: inhibits cancer cell proliferation without inducing cell death
SKMEL-28 melanoma cells; [6]
  global growth ratio (GGR), SKMEL-28: ca. 0.3
U373 glioblastoma cells; [5]
  phenotypic effect, U373: inhibits cancer cell proliferation without inducing cell death
U373 glioblastoma cells; [6]
  global growth ratio (GGR), U373: ca. 0.3
U87 glioma cells
  phenotypic morphological changes of U87 cells: ceased to replicate and appeared to undergo redifferentiation to a non-malignant state resembling an astrocytic phenotype
[4]
  antiproliferative potency (GI50): single-digit micromolar
